# Experimental data from patent publication US9963448B2, “Bicyclic inhibitors of PAD4” (Padlock Therapeutics, Inc., priority 2015, dated 2018).
# Like-named read-outs stand apart in the source and are kept apart here.
# Target: hPAD4 (Homo sapiens, UniProt Q9UM07)
# Experiment: hPAD4 RFMS (RapidFire mass spectrometry) PAD4 inhibition assay;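 for hPAD4 RFMS pIC50: grade E means pIC50 at most 4 and F means pIC50 4.0 to 5.0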
# Type: biochemical
# Conditions: hPAD4 enzyme, RFMS readout
# Method: Compounds of the present invention were assayed as inhibitors of PAD4 using the assay protocol described below.
# Compound stock solutions were stored at RT. […] Final assay conditions were as follows:
# Total incubation time: 65 mins at 37° C.
# Stop solution: 40 μl 5% TCA in ACN
# The compound numbers correspond to the compound numbers in Table 1. […] The term pIC50=−log(IC50). […] “NA” stands for “not assayed.”
# [1] = pIC50=−log(IC50), read-out: hPAD4 RFMS pIC50 (converted)
# hPAD4, sequence (Q9UM07 whole entry): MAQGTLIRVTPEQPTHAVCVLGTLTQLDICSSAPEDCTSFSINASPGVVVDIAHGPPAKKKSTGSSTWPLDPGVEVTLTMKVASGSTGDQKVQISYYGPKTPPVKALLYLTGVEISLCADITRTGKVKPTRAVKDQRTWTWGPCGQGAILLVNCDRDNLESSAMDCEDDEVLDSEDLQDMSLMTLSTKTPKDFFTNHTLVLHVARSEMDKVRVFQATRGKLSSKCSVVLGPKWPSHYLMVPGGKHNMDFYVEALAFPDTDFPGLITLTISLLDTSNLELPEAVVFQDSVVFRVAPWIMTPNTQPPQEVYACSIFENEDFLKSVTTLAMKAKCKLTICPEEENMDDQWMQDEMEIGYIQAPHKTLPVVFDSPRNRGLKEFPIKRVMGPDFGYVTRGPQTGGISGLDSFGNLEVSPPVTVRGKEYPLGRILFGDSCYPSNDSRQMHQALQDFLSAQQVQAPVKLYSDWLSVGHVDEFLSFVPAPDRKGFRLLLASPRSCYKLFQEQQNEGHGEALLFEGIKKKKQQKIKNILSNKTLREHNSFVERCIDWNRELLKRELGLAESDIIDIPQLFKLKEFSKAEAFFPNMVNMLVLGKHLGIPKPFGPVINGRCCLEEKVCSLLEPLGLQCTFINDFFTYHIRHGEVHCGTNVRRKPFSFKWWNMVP
SMILES,IC50 [1],IC50 (read-out: hPAD4 RFMS IC50),hPAD4 RFMS pIC50 (pIC50=−log(IC50))
Cn1c(-c2cc3cccnc3n2CC2CC2)nc2cc(C(=O)N3CCC(F)C(N)C3)ccc21 (stereo not shown) [Compound I-49],1 to 10 µM,5 to 10 µM,
Cn1c(-c2cc3cccnc3n2CC2CC2)nc2cc(C(=O)N3CCC[C@@H]4CNC[C@@H]43)ccc21 [Compound I-43],> 100 µM,> 10 µM,
COc1cc(C(=O)N2C[C@H]3CCC2[C@H]3N)cc2nc(-c3cc4cc(N(C)CCC5CC5)ccc4n3CC3CC3)n(C)c12 [Compound I-373],1 to 10 µM,1 to 5 µM,
COc1cc(C(=O)N2CC[C@@H](F)[C@H](N)C2)cc2nc(-c3cc4cccnc4n3CC3CC3)n(C)c12 [Compound I-57],1 to 10 µM,1 to 5 µM,
CCn1c(-c2nc3cc(C(=O)N4CC[C@H]5CCN[C@H]5C4)ccc3n2C)cc2cccnc21 [Compound I-1],10 to 100 µM,> 10 µM,
Cn1c(-c2cc3cccnc3n2CC2CC2)nc2cc(C(=O)N3CCCC4(CCCCN4)C3)ccc21 (stereo not shown) [Compound I-48],10 to 100 µM,> 10 µM,
Cn1c(-c2cc3ccccc3n2CC2CC2)nc2cc(C(=O)N3CC[C@@H]4CCN[C@@H]4C3)ccc21 [Compound I-2],10 to 100 µM,> 10 µM,
Cn1c(-c2cc3cccnc3n2CC2CC2)nc2cc(C(=O)N3CCC[C@@H]4NCC[C@@H]43)ccc21 [Compound I-61],> 100 µM,> 10 µM,
Cn1c(-c2cc3cccnc3n2CC2CC2)nc2cc(C(=O)N3CCCC4(CCN4)C3)ccc21 (stereo not shown) [Compound I-42],> 100 µM,> 10 µM,
COc1cc(C(=O)N2C[C@H]3CCC2[C@H]3N)cc2nc(-c3cc4ccc(/C=C/c5ccc(C(F)(F)F)cc5)cc4n3CC3CC3)n(C)c12 [Compound I-367],< 1 µM,< 1 µM,
Cn1c(-c2cc3cccnc3n2CC2CC2)nc2cc(C(=O)N3CCC[C@H]4CNC[C@H]43)ccc21 [Compound I-44],> 100 µM,> 10 µM,
COc1cc(C(=O)N2C[C@H]3CCC2[C@H]3N)cc2nc(-c3cc4cc(/C=C/CCc5ccccc5)ccc4n3CC3CC3)n(C)c12 [Compound I-360],< 1 µM,< 1 µM,
Cn1c(-c2cc3cccnc3n2CC2CC2)nc2cc(C(=O)N3C4CCC(N)C3CC4)ccc21 (stereo not shown) [Compound I-63],10 to 100 µM,> 10 µM,
Cn1c(-c2cc3cccnc3n2CC2CC2)nc2cc(C(=O)N3CC4CNC4C3)ccc21 (stereo not shown) [Compound I-38],> 100 µM,> 10 µM,
CCn1c(-c2nc3cc(C(=O)N4CCC5CCNC5C4)ccc3n2C)cc2cccnc21 (stereo not shown) [Compound I-16],1 to 10 µM,5 to 10 µM,
"CCn1c(-c2nc3cc(C(=O)N4CC[C@@H]5CCN[C@@H]5C4)cc(OC)c3n2C)cc2cccnc21 (single isomer, unassigned) [Compound I-3]",1 to 10 µM,1 to 5 µM,
COc1cc(C(=O)N2C[C@H]3CCC2[C@H]3N)cc2nc(-c3cc4ccc(/C=C/C5CC5)cc4n3CC3CC3)n(C)c12 [Compound I-363],< 1 µM,< 1 µM,
COc1cc(C(=O)N2C[C@H]3CCC2[C@H]3N)cc2nc(-c3cc4ccc(/C=C/CC(C)C)cc4n3CC3CC3)n(C)c12 [Compound I-364],< 1 µM,< 1 µM,
Cn1c(-c2cc3cccnc3n2CC2CC2)nc2cc(C(=O)N3C[C@H](N)C[C@H](F)C3)ccc21 [Compound I-67],10 to 100 µM,> 10 µM,
COc1cc(C(=O)N2C[C@H]3CC[C@@H]2[C@@H]3N)cc2nc(-c3cc4cc(NCC5CC5)ccc4n3CC3CC3)n(C)c12 [Compound I-372],,1 to 5 µM,G/H
Cn1c(-c2cc3cccnc3n2CC2CC2)nc2cc(C(=O)N3CCCC4NCCCC43)ccc21 (stereo not shown) [Compound I-53],> 100 µM,> 10 µM,
"COc1cc(C(=O)N2C[C@H]3C[C@H](OC)[C@@H]2[C@@H]3N)cc2nc(-c3cc4cccnc4n3CC3CC3)n(C)c12 [Compound I-167, (1 S,4R,6S,7R)-2-{2-[1-(Cyclopropylmethyl)-1H-pyrrolo[2,3-b]pyridin-2-yl]-7-methoxy-1-methyl-1H-1,3-benzodiazole-5-carbonyl}-6-methoxy-2-azabicyclo[2.2.1]heptan-7-amine]",1 to 10 µM,1 to 5 µM,
Cn1c(-c2cc3cccnc3n2CC2CC2)nc2cc(C(=O)N3CCC4(CCCN4)C3)ccc21 (stereo not shown) [Compound I-39],10 to 100 µM,> 10 µM,
Cn1c(-c2cc3cccnc3n2CC2CC2)nc2cc(C(=O)N3CCC4CNC4C3)ccc21 (stereo not shown) [Compound I-40],10 to 100 µM,> 10 µM,
Cn1c(-c2cc3cccnc3n2CC2CC2)nc2cc(C(=O)N3CCCC4(CCCN4)C3)ccc21 (stereo not shown) [Compound I-41],10 to 100 µM,> 10 µM,
Cn1c(-c2cc3cccnc3n2CC2CC2)nc2cc(C(=O)N3CCC4CCNC4C3)ccc21 (stereo not shown) [Compound I-6],1 to 10 µM,1 to 5 µM,
Cn1c(-c2cc3cccnc3n2CC2CC2)nc2cc(C(=O)N3CC4CCC(C3)C4N)ccc21 (stereo not shown) [Compound I-50],> 100 µM,> 10 µM,
Cn1c(-c2cc3cccnc3n2CC2CC2)nc2cc(C(=O)N3CCCC4(CCCNC4)C3)ccc21 (stereo not shown) [Compound I-45],> 100 µM,> 10 µM,

# Continued, values first:
IC50 [1],IC50 (read-out: hPAD4 RFMS IC50),hPAD4 RFMS pIC50 (pIC50=−log(IC50)),SMILES
< 1 µM,< 1 µM,,COc1cc(C(=O)N2C[C@H]3CCC2[C@H]3N)cc2nc(-c3cc4ccc(/C=C/c5ccccc5)cc4n3CC3CC3)n(C)c12 [Compound I-365]
< 1 µM,< 1 µM,,COc1cc(C(=O)N2C[C@H]3CC[C@@H]2[C@@H]3N)cc2nc(-c3cc4ccc(N(C)CCC5CC5)cc4n3CC3CC3)n(C)c12 [Compound I-376]
< 1 µM,< 1 µM,,"COc1ccc2cc(-c3nc4cc(C(=O)N5C[C@H](N)CC[C@@H]5C)cc(OC)c4n3C)n(CC3CC3)c2n1 [Compound I-355, ((2S,5R)-5-amino-2-methylpiperidin-1-yl)(2-(1-(cyclopropylmethyl)-6-methoxy-1H-pyrrolo[2,3-b]pyridin-2-yl)-7-methoxy-1-methyl-1H-benzo[d]imidazol-5-yl)methanone]"
< 1 µM,< 1 µM,,COc1cc(C(=O)N2C[C@H]3CCC2[C@H]3N)cc2nc(-c3cc4ccc(/C=C/CCc5ccccc5)cc4n3CC3CC3)n(C)c12 [Compound I-369]
< 1 µM,< 1 µM,,COc1cc(C(=O)N2C[C@H]3CCC2[C@H]3N)cc2nc(-c3cc4cc(/C=C/CC(C)C)ccc4n3CC3CC3)n(C)c12 [Compound I-358]
< 1 µM,< 1 µM,,"COc1ccc2cc(-c3nc4cc(C(=O)N5C[C@H]6CC[C@@H]5[C@@H]6N)ccc4n3C)n(CC3CC3)c2n1 [Compound I-353, ((1R,4R,7R)-7-amino-2-azabicyclo[2.2.1]heptan-2-yl)(2-(1-(cyclopropylmethyl)-6-methoxy-1H-pyrrolo[2,3-b]pyridin-2-yl)-1-methyl-1H-benzo[d]imidazol-5-yl)methanone]"
< 1 µM,< 1 µM,,COc1cc(C(=O)N2C[C@H]3CCC2[C@H]3N)cc2nc(-c3cc4cc(/C=C/c5ccccc5)ccc4n3CC3CC3)n(C)c12 [Compound I-359]
< 1 µM,< 1 µM,,"COc1cc(C(=O)N2C[C@H]3CC[C@H]2[C@H]3N)cc2nc(-c3cc4cc(NCCC5CC5)ccc4n3CC3CC3)n(C)c12 [Compound I-374, ((1S,4R)-7-amino-2-azabicyclo[2.2.1]heptan-2-yl)(2-(5-((2-cyclopropylethyl)amino)-1-(cyclopropylmethyl)-1H-indol-2-yl)-7-methoxy-1-methyl-1H-benzo[d]imidazol-5-yl)methanone]"
< 1 µM,< 1 µM,,COCCn1c(-c2nc3cc(C(=O)N4C[C@H]5CC[C@@H]4[C@@H]5N)cc(OC)c3n2C)cc2cccnc21 [Compound I-169]
< 1 µM,< 1 µM,,COc1cc(C(=O)N2C[C@H]3CC[C@@H]2[C@@H]3N)cc2nc(-c3cc4cc(C5=Cc6ccccc6C5)ccc4n3CC3CC3)n(C)c12 [Compound I-362]
< 1 µM,< 1 µM,,"COc1ccc2cc(-c3nc4cc(C(=O)N5C[C@H](N)CC[C@@H]5C)ccc4n3C)n(CC3CC3)c2n1 [Compound I-352, ((2S,5R)-5-amino-2-methylpiperidin-1-yl)(2-(1-(cyclopropylmethyl)-6-methoxy-1H-pyrrolo[2,3-b]pyridin-2-yl)-1-methyl-1H-benzo[d]imidazol-5-yl)methanone]"
< 1 µM,< 1 µM,,COc1cc(C(=O)N2C[C@H]3CCC2[C@H]3N)cc2nc(-c3cc4ccc(C5=Cc6ccccc6C5)cc4n3CC3CC3)n(C)c12 [Compound I-368]
< 1 µM,< 1 µM,,"COc1cc(C(=O)N2C[C@H]3CC[C@H]2[C@H]3N)cc2nc(-c3cc4cc(/C=C/c5ccc(C(F)(F)F)cc5)ccc4n3CC3CC3)n(C)c12 [Compound I-361, ((1S,4R)-7-amino-2-azabicyclo[2.2.1]heptan-2-yl)(2-(1-(cyclopropylmethyl)-5-((E)-4-(trifluoromethyl)styryl)-1H-indol-2-yl)-7-methoxy-1-methyl-1H-benzo[d]imidazol-5-yl)methanone]"
< 1 µM,< 1 µM,,COc1cc(C(=O)N2CCC3CCNC3C2)cc2nc(-c3cc4cccnc4n3CC3CC3)n(C)c12 (stereo not shown) [Compound I-8]
< 1 µM,< 1 µM,,CCn1c(-c2nc3cc(C(=O)N4C[C@H]5CC[C@@H]4[C@@H]5N)cc(OC)c3n2C[C@H]2C[C@@](C)(OC)C2)cc2cccnc21 [Compound I-168]
< 1 µM,< 1 µM,,"COc1ccc2cc(-c3nc4cc(C(=O)N5C[C@@H](N)C[C@H](F)C5)ccc4n3C)n(CC3CC3)c2n1 [Compound I-354, ((3S,5S)-3-amino-5-fluoropiperidin-1-yl)(2-(1-(cyclopropylmethyl)-6-methoxy-1H-pyrrolo[2,3-b]pyridin-2-yl)-1-methyl-1H-benzo[d]imidazol-5-yl)methanone]"
